Measurements published in PMC4690157, “Sulfur Isotope Effects of Dissimilatory Sulfite Reductase” (Frontiers in Microbiology, 2015).

Experiments:
D. vulgaris DsrAB = molecular target: T1, D. vulgaris DsrAB (Nitratidesulfovibrio vulgaris, UniProt P45574+P45575); test: sulfite loss over […] h by HPLC of monobromobimane derivatives; Michaelis-Menten fit; assay type: biochemical; conditions: H2 / [NiFe] hydrogenase / methyl viologen as electron donor system; 50 mM phosphate pH 7.1; anoxic; 20 or 31 °C (fractionation conditions)
T1 construct: gene dsvA; native, purified from D. vulgaris cells (Q-Sepharose); heterodimeric DsrAB with siroheme (desulfoviridin)

A. fulgidus DsrAB = molecular target: T2, A. fulgidus DsrAB (Archaeoglobus fulgidus, UniProt Q59109+Q59110); test: closed-system in vitro sulfite reduction; sulfite loss and product accumulation (fuchsin assay, cyanolysis); assay type: biochemical; conditions: 15 mM initial sulfite; 65 °C; pH 7.1; H2 / [NiFe] hydrogenase / methyl viologen as electron donor system
T2 construct: gene dsrA; native, purified from A. fulgidus cells; heterodimeric DsrAB with siroheme; free of DsrC
T2 sequence (Q59109 2-418): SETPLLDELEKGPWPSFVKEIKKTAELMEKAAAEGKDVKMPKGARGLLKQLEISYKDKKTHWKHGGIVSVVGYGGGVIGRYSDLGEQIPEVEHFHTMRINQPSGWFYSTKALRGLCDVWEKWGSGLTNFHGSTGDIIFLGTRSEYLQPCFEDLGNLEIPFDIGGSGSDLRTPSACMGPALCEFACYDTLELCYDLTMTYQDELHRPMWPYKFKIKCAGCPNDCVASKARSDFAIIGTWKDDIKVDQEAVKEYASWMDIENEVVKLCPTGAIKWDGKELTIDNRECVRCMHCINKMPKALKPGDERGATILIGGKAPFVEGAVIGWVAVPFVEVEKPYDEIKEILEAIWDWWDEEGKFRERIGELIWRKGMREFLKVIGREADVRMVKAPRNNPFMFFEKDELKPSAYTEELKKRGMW
T2 sequence (Q59110 whole entry): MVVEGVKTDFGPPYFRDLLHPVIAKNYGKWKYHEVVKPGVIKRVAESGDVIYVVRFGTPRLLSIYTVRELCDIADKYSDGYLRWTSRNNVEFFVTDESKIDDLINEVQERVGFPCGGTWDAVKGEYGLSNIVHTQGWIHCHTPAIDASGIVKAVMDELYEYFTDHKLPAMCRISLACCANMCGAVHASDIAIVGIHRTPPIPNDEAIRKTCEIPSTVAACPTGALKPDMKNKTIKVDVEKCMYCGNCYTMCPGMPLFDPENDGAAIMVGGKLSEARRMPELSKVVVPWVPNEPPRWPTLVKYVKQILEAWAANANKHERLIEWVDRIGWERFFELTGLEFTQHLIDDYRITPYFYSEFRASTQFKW

T1 sequence (P45574 2-437): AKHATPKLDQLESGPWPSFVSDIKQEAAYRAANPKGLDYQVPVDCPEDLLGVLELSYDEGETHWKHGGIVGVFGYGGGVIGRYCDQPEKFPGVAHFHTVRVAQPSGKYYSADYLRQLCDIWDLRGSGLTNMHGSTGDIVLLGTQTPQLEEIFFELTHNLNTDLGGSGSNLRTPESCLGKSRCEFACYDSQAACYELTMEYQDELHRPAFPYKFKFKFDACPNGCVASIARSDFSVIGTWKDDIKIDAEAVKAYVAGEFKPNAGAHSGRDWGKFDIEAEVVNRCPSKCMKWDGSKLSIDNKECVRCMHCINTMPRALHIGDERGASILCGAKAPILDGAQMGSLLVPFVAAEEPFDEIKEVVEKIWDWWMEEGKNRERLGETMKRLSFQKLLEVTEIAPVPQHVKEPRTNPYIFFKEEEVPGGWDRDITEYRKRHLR
T1 sequence (P45575 2-381): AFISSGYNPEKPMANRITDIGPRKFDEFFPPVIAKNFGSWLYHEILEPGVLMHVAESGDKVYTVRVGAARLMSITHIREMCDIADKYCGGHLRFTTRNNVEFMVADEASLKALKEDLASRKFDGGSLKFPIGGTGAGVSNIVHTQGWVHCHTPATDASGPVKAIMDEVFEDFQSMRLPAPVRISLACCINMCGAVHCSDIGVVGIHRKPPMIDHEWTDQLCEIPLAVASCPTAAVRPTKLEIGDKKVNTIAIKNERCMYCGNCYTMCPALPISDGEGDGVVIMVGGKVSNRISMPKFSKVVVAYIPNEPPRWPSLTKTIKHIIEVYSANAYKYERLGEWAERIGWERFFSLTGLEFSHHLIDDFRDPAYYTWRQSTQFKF

For `O=S(O)O` [sulfite], the Km (D. vulgaris DsrAB) was “solved for experimental Km and Vmax under our conditions” and the “closed-system in vitro sulfite reduction; sulfite loss and product accumulation” value (A. fulgidus DsrAB) was “showed consistent loss of sulfite and accumulation of products between replicates”.
